Values after ≈ are worked out from the molar mass of the structure shown. Read-outs that look alike come from different tables or passages of the source.
Tests used:
Type in all cases: cell-based
[1] = test system: P. aeruginosa 2297 (AmpC wt); experiment: MIC determination, broth microdilution (CLSI); details: Pseudomonas aeruginosa, strain 7
A. baumannii ATCC15308 = experiment: MIC determination, broth microdilution (CLSI); details: Acinetobacter baumannii, ATCC15308, strain 9
C. perfringens DSM756 = experiment: microbe, parasite or virus in culture; details: Clostridium perfringens, DSM756, read-out: MIC strain 16 (C. perfringens DSM756), strain 16; broth microdilution
E. cloacae 34654 = experiment: MIC determination, broth microdilution (CLSI); details: Enterobacter cloacae, 34654, strain 3
S. aureus 133 = experiment: MIC determination, broth microdilution (CLSI)
C. freundii K21/3034 = experiment: MIC determination, broth microdilution (CLSI); details: Citrobacter freundii, K21/3034, strain 4
S. pneumoniae 113 = experiment: MIC determination, broth microdilution (CLSI); details: Streptococcus pneumoniae, 113, strain 13; broth microdilution; read-out: MIC strain 13 (S. pneumoniae 113)
S. maltophilia ICB7569 = experiment: MIC determination, broth microdilution (CLSI); details: Stenotrophomonas maltophilia, ICB7569, strain 10
Bacteria = experiment: MIC determination in combination with β-lactamase inhibitors (constant 4 μg/mL)
B. fragilis 6688 = experiment: MIC determination, broth microdilution (CLSI); details: Bacteroides fragilis, 6688, strain 15; broth microdilution; read-out: MIC strain 15 (B. fragilis 6688)
E. coli J62 = experiment: MIC determination, broth microdilution (CLSI); details: Escherichia coli, J62, strain 17; broth microdilution; read-out: MIC strain 17 (E. coli J62)
H. influenzae ATCC 49247 = experiment: MIC determination, broth microdilution (CLSI); details: Haemophilus influenzae, ATCC49247, strain 12; broth microdilution; read-out: MIC strain 12 (H. influenzae ATCC 49247)
P. aeruginosa PAO1 = experiment: MIC determination, broth microdilution (CLSI); details: Pseudomonas aeruginosa, PAO1, strain 6
E. coli J62-TEM-3 = experiment: MIC determination, broth microdilution (CLSI); details: Escherichia coli, J62TEM3, read-out: MIC strain 18 (E. coli J62-TEM-3), strain 18; broth microdilution
E. coli ATCC25922 = experiment: MIC determination, broth microdilution (CLSI); details: Escherichia coli, ATCC25922, strain 1
M. morganii 126/3048 = experiment: MIC determination, broth microdilution (CLSI); details: Morganella morganii, 126/3048, strain 5
[2] = test system: P. aeruginosa 2297-con (AmpC derepressed); experiment: MIC determination, broth microdilution (CLSI); details: Pseudomonas aeruginosa, read-out: strain 8 MIC, strain 8
K. pneumoniae 60 = experiment: MIC determination, broth microdilution (CLSI); details: Klebsiella pneumoniae, 60, strain 2
[3] = Staphylococcus aureus, 133, strain 11, read-out: strain 11 MIC
[4] = Staphylococcus aureus, 133, strain 14, broth microdilution, read-out: MIC strain 14 (S. aureus 133)

SMILES | MIC [1] | MIC (A. baumannii ATCC15308) | MIC (C. perfringens DSM756) | MIC (E. cloacae 34654) | MIC (S. aureus 133; [3]) | MIC (S. aureus 133; [4]) | MIC (C. freundii K21/3034) | MIC (S. pneumoniae 113) | MIC (S. maltophilia ICB7569) | MIC strain 19 (E. coli J62-TEM-3 + 4 μg/mL clavulanic acid) (Bacteria) | MIC strain 20 (E. coli J62-TEM-3 + 4 μg/mL sulbactam) (Bacteria) | MIC strain 21 (E. coli J62-TEM-3 + 4 μg/mL tazobactam) (Bacteria) | MIC (B. fragilis 6688) | MIC (E. coli J62) | MIC (H. influenzae ATCC 49247) | MIC (P. aeruginosa PAO1) | MIC (E. coli J62-TEM-3) | MIC (E. coli ATCC25922) | MIC (M. morganii 126/3048) | MIC [2] | further results
C[C@H]1[C@H](NC(=O)/C(=N\OCCOc2ccc(C(=N)N)cc2)c2nc(N)sc2Cl)C(=O)N1S(=O)(=O)O [Example 61, (2S,3S)-3-{[(2Z)-2-(2-Amino-5-chloro-1,3-thiazol-4-yl)-2-{[2-(4-carbamimidoylphenoxy)ethoxy]imino}acetyl]amino}-2-methyl-4-oxoazetidine-1-sulfonic acid] | 2 µg/mL (≈ 3.66 µM) | 2 µg/mL (≈ 3.66 µM) | 8 µg/mL (≈ 14.7 µM) | 2 µg/mL (≈ 3.66 µM) | ≤ 0.063 µg/mL | 8 µg/mL (≈ 14.7 µM) | 1 µg/mL (≈ 1.83 µM) | ≤ 0.063 µg/mL | 16 µg/mL (≈ 29.3 µM) | 2 µg/mL | 2 µg/mL | 2 µg/mL | 8 µg/mL (≈ 14.7 µM) | 2 µg/mL (≈ 3.66 µM) | 0.25 µg/mL (≈ 0.458 µM) | 2 µg/mL (≈ 3.66 µM) | 8 µg/mL (≈ 14.7 µM) | 2 µg/mL (≈ 3.66 µM) | 0.5 µg/mL (≈ 0.916 µM) | 16 µg/mL (≈ 29.3 µM) | MIC (K. pneumoniae 60): 2 µg/mL (≈ 3.66 µM)
CC1(C)[C@H](NC(=O)/C(=N\OCCOc2ccc(C(=N)NCC(=O)O)cc2)c2csc(N)n2)C(=O)N1OS(=O)(=O)O [Example 73, N-[{4-[2-({[(1Z)-1-(2-Amino-1,3-thiazol-4-yl)-2-{[(3S)-2,2-dimethyl-4-oxo-1-(sulfo-oxy)azetidin-3-yl]amino}-2-oxoethylidene]amino}oxy)ethoxy]phenyl}(imino)methyl]glycine] | 32 µg/mL (≈ 53.4 µM) | 16 µg/mL (≈ 26.7 µM) | 4 µg/mL (≈ 6.67 µM) | 0.5 µg/mL (≈ 0.834 µM) | ≤ 0.063 µg/mL | 32 µg/mL (≈ 53.4 µM) | 0.5 µg/mL (≈ 0.834 µM) | ≤ 0.063 µg/mL | 32 µg/mL (≈ 53.4 µM) | 0.5 µg/mL | 0.5 µg/mL | 1 µg/mL | 8 µg/mL (≈ 13.3 µM) | 1 µg/mL (≈ 1.67 µM) | 0.25 µg/mL (≈ 0.417 µM) | 16 µg/mL (≈ 26.7 µM) | 32 µg/mL (≈ 53.4 µM) | 0.5 µg/mL (≈ 0.834 µM) | 0.5 µg/mL (≈ 0.834 µM) | 32 µg/mL (≈ 53.4 µM) | MIC (K. pneumoniae 60): 0.5 µg/mL (≈ 0.834 µM)
Cc1sc(C(=N)N)nc1OCCO/N=C(\C(=O)N[C@@H]1C(=O)N(OS(=O)(=O)O)C1(C)C)c1csc(N)n1 [Example 74, (2Z)-2-(2-Amino-1,3-thiazol-4-yl)-2-({2-[(2-carbamimidoyl-5-methyl-1,3-thiazol-4-yl)oxy]ethoxy}imino)-N-[(3S)-2,2-dimethyl-4-oxo-1-(sulfooxy)azetidin-3-yl]ethanamide] | 32 µg/mL (≈ 56.9 µM) | 2 µg/mL (≈ 3.55 µM) | 2 µg/mL (≈ 3.55 µM) | 4 µg/mL (≈ 7.11 µM) | ≤ 0.063 µg/mL | 32 µg/mL (≈ 56.9 µM) | 1 µg/mL (≈ 1.78 µM) | ≤ 0.063 µg/mL | 16 µg/mL (≈ 28.4 µM) | 1 µg/mL | 1 µg/mL | 2 µg/mL | 2 µg/mL (≈ 3.55 µM) | 4 µg/mL (≈ 7.11 µM) | 0.25 µg/mL (≈ 0.444 µM) | 16 µg/mL (≈ 28.4 µM) | 16 µg/mL (≈ 28.4 µM) | 1 µg/mL (≈ 1.78 µM) | 1 µg/mL (≈ 1.78 µM) | 32 µg/mL (≈ 56.9 µM) | MIC (K. pneumoniae 60): 2 µg/mL (≈ 3.55 µM)
CC1(C)[C@H](NC(=O)/C(=N\OCCOc2ccc(C(=N)NCc3ccccn3)cc2)c2csc(N)n2)C(=O)N1OS(=O)(=O)O [Example 76, (2Z)-2-(2-Amino-1,3-thiazol-4-yl)-N-[(3S)-2,2-dimethyl-4-oxo-1-(sulfooxy)azetidin-3-yl]-2-[(2-{4-[N-(pyridin-2-ylmethyl)carbamimidoyl]phenoxy}ethoxy)imino]ethanamide] | 16 µg/mL (≈ 25.3 µM) | 4 µg/mL (≈ 6.32 µM) | 2 µg/mL (≈ 3.16 µM) | 1 µg/mL (≈ 1.58 µM) | ≤ 0.063 µg/mL | 4 µg/mL (≈ 6.32 µM) | 0.5 µg/mL (≈ 0.79 µM) | ≤ 0.063 µg/mL | 16 µg/mL (≈ 25.3 µM) | 0.5 µg/mL | 0.5 µg/mL | 0.5 µg/mL | 4 µg/mL (≈ 6.32 µM) | 0.5 µg/mL (≈ 0.79 µM) | 0.25 µg/mL (≈ 0.395 µM) | 16 µg/mL (≈ 25.3 µM) | 8 µg/mL (≈ 12.6 µM) | 0.5 µg/mL (≈ 0.79 µM) | 1 µg/mL (≈ 1.58 µM) | 32 µg/mL (≈ 50.6 µM) | MIC (K. pneumoniae 60): 0.5 µg/mL (≈ 0.79 µM)

— US9556165B2 (priority 2012, dated 2017)
